Assay results from US11708562B2, “Differentiation of human embryonic stem cells” (Janssen Biotech, Inc., priority 2006, dated 2023).

Tested on: H9P33, H9P44 and H9P48 cells
Test: Microarray analysis of definitive endoderm on MEFs vs MATRIGEL +/- Wnt-3A (Table VI)
Settings: log format
Protocol: Controls for each group included cells plated on […]-coated dishes and cultured in MEF-conditioned medium or cells plated on MEFs and cultured in ES medium. All groups contained three biological replicates and each biological replicate was repeated on two separate gene chips.
Sample preparation, hybridization, and image analysis were performed according to the Affymetrix Human Genome U133 Plus 2.0 Array. Following normalization and a log transformation, data analysis was performed using OmniViz® software (MA) and […] (VizXLabs, WA). Significant differences in gene expression between the samples were evaluated using analysis of variance and an F-test with adjusted P-value (Benjamini and Hochberg correction) of ≤0.05. Only genes with a present call in at least one group were included in the analysis.

[1] = DE treatment in low serum + AA on MATRIGEL
[2] = DE treatment in low serum + AA on MEFS

Activin A: a member of the TGFβ superfamily; growth factor (R&D Systems) used to differentiate human embryonic stem cells
mean normalized intensity: Homo sapiens chorionic somatomammotropin hormone 2 (CSH2), transcript variant 1, mRNA. [1]: 1.124 | mean normalized intensity: Homo sapiens chorionic somatomammotropin hormone 2 (CSH2), transcript variant 4, mRNA. [1]: 0.8122 | mean normalized intensity: Homo sapiens galanin receptor 1 (GALR1), mRNA. [1]: 2.507 | mean normalized intensity: Homo sapiens growth hormone 2 (GH2), transcript variant 2, mRNA. [1]: 0.9226 | mean normalized intensity: Homo sapiens hypothetical protein FLJ20075 (FLJ20075), mRNA. [1]: −0.3592 | mean normalized intensity: Homo sapiens mRNA for SCCA2b, complete cds. [1]: 3.329 | mean normalized intensity: Homo sapiens mRNA; cDNA DKFZp586P1124 (from clone DKFZp586P1124) [1]: 0.4856 | mean normalized intensity: Homo sapiens methyl-CpG binding protein MBD2 (MBD2) mRNA, complete cds. [1]: 0.4906 | mean normalized intensity: Homo sapiens tachykinin, precursor 1 (TAC1), transcript variant beta, mRNA. [1]: 2.773 | mean normalized intensity: Homo sapiens testis expressed sequence 14 (TEX14), mRNA. [1]: 3.512 | mean normalized intensity: Homo sapiens, Similar to LIM homeobox protein 8, clone IMAGE: 4839343, mRNA. [1]: −0.06288 | mean normalized intensity: Homo sapiens, Similar to cadherin 6, type 2, K-cadherin (fetal kidney), clone MGC: 1470, mRNA, complete cds. [1]: 2.547 | mean normalized intensity: Homo sapiens, Similar to hypothetical protein FLJ10058, clone MGC: 34305 IMAGE: 5167647, mRNA, complete cds. [1]: 1.698 | mean normalized intensity: Homo sapiens, Similar to hypothetical protein FLJ32001, clone MGC: 39559 IMAGE: 4828136, mRNA, complete cds. [1]: 0.5207 | mean normalized intensity: Homo sapiens, clone IMAGE: 4067166, mRNA [1]: 0.1959 | mean normalized intensity: Homo sapiens, clone IMAGE: 4828836, mRNA. [1]: 0.9729 | mean normalized intensity: Homo sapiens, serine (or cysteine) proteinase inhibitor, clade B (ovalbumin), member 3, clone MGC: 12244, mRNA, complete cds. [1]: 1.969 | mean normalized intensity: Human mRNA upregulated during camptothecin-induced apoptosis of U937 cells. [1]: 0.4945 | mean normalized intensity: Human platelet-derived growth factor alpha-receptor (PDGFRA) mRNA, exons 13-16 [1]: 2.445 | mean normalized intensity: KIAA1151 protein [1]: 0.6425 | mean normalized intensity: caldesmon 1 [1]: 7.092 | mean normalized intensity: nuclear receptor subfamily 1, group I, member 3 [1]: 1.779 | mean normalized intensity: ESTs (DE treatment in low serum + AA on MATRIGEL, gene line r2006): 1.5857 | mean normalized intensity: ESTs (DE treatment in low serum + AA on MATRIGEL, gene line r2025): 1.531 | mean normalized intensity: ESTs (DE treatment in low serum + AA on MATRIGEL, gene line r2032): 0.1336 | mean normalized intensity: paternally expressed 3 (DE treatment in low serum + AA on MATRIGEL, gene line r2033): 2.876 | mean normalized intensity: ESTs (DE treatment in low serum + AA on MATRIGEL, gene line r2038): 3.262 | mean normalized intensity: paternally expressed 3 (DE treatment in low serum + AA on MATRIGEL, gene line r2093): 2.874 | mean normalized intensity: ESTs (DE treatment in low serum + AA on MATRIGEL, gene line r2134): −1.3795 | mean normalized intensity: ESTs (DE treatment in low serum + AA on MATRIGEL, gene line r2148): 4.454 | mean normalized intensity: DKFZP566K1924 protein [2]: 1.391 | mean normalized intensity: H. sapiens mRNA for B-HLH DNA binding protein. [2]: 3.451 | mean normalized intensity: Homo sapiens BCL2-interacting killer (apoptosis-inducing) (BIK), mRNA. [2]: 3.562 | mean normalized intensity: Homo sapiens Charot-Leyden crystal protein (CLC), mRNA. [2]: 2.1096 | mean normalized intensity: Homo sapiens HES-related repressor protein 1 HERP1 mRNA, complete cds. [2]: 2.406 | mean normalized intensity: Homo sapiens HSPC156 protein (HSPC156), mRNA. [2]: 1.296 | mean normalized intensity: Homo sapiens KIAA0469 gene product (KIAA0469), mRNA. [2]: 2.565 | mean normalized intensity: Homo sapiens PNAS-123 mRNA, complete cds [2]: 1.847 | mean normalized intensity: Homo sapiens Wilms tumor 1 (WT1), transcript variant D, mRNA. [2]: −2.435 | mean normalized intensity: Homo sapiens cDNA FLJ11398 fis, clone HEMBA1000637. [2]: 1.849 | mean normalized intensity: Homo sapiens cDNA: FLJ22547 fis, clone HSI00356 [2]: 2.095 | mean normalized intensity: Homo sapiens cadherin 6, type 2, K-cadherin (fetal kidney) (CDH6), mRNA. [2]: −0.8763 | mean normalized intensity: Homo sapiens chorionic somatomammotropin hormone 2 (CSH2), transcript variant 1, mRNA. [2]: 2.616 | mean normalized intensity: Homo sapiens chorionic somatomammotropin hormone 2 (CSH2), transcript variant 4, mRNA. [2]: 2.218 | mean normalized intensity: Homo sapiens galanin receptor 1 (GALR1), mRNA. [2]: −0.338 | mean normalized intensity: Homo sapiens growth hormone 2 (GH2), transcript variant 2, mRNA. [2]: 1.4679 | mean normalized intensity: Homo sapiens hypothetical protein FLJ20075 (FLJ20075), mRNA. [2]: −0.06528 | mean normalized intensity: Homo sapiens mRNA for SCCA2b, complete cds. [2]: 0.568 | mean normalized intensity: Homo sapiens mRNA; cDNA DKFZp586P1124 (from clone DKFZp586P1124) [2]: −3.094 | mean normalized intensity: Homo sapiens methyl-CpG binding protein MBD2 (MBD2) mRNA, complete cds. [2]: −1.702 | mean normalized intensity: Homo sapiens tachykinin, precursor 1 (TAC1), transcript variant beta, mRNA. [2]: 1.483 | mean normalized intensity: Homo sapiens testis expressed sequence 14 (TEX14), mRNA. [2]: −1.3824 | mean normalized intensity: Homo sapiens, Similar to LIM homeobox protein 8, clone IMAGE: 4839343, mRNA. [2]: −1.11 | mean normalized intensity: Homo sapiens, Similar to cadherin 6, type 2, K-cadherin (fetal kidney), clone MGC: 1470, mRNA, complete cds. [2]: 2.134 | mean normalized intensity: Homo sapiens, Similar to hypothetical protein FLJ10058, clone MGC: 34305 IMAGE: 5167647, mRNA, complete cds. [2]: 0.2156 | mean normalized intensity: Homo sapiens, Similar to hypothetical protein FLJ32001, clone MGC: 39559 IMAGE: 4828136, mRNA, complete cds. [2]: 1.269 | mean normalized intensity: Homo sapiens, clone IMAGE: 4067166, mRNA [2]: 0.277 | mean normalized intensity: Homo sapiens, clone IMAGE: 4828836, mRNA. [2]: −1.484 | mean normalized intensity: Homo sapiens, serine (or cysteine) proteinase inhibitor, clade B (ovalbumin), member 3, clone MGC: 12244, mRNA, complete cds. [2]: −1.566 | mean normalized intensity: Human mRNA upregulated during camptothecin-induced apoptosis of U937 cells. [2]: −0.1892 | mean normalized intensity: Human platelet-derived growth factor alpha-receptor (PDGFRA) mRNA, exons 13-16 [2]: 2.905 | mean normalized intensity: KIAA1151 protein [2]: 1.009 | mean normalized intensity: caldesmon 1 [2]: 5.634 | mean normalized intensity: nuclear receptor subfamily 1, group I, member 3 [2]: −0.1968 | mean normalized intensity: ESTs (DE treatment in low serum + AA on MEFS, gene line r2006): −1.3 | mean normalized intensity: ESTs (DE treatment in low serum + AA on MEFS, gene line r2025): 1.373 | mean normalized intensity: ESTs (DE treatment in low serum + AA on MEFS, gene line r2032): −1.566 | mean normalized intensity: paternally expressed 3 (DE treatment in low serum + AA on MEFS, gene line r2033): −0.0118 | mean normalized intensity: ESTs (DE treatment in low serum + AA on MEFS, gene line r2038): 1.5682 | mean normalized intensity: paternally expressed 3 (DE treatment in low serum + AA on MEFS, gene line r2093): −3.492 | mean normalized intensity: ESTs (DE treatment in low serum + AA on MEFS, gene line r2134): −0.9461 | mean normalized intensity: ESTs (DE treatment in low serum + AA on MEFS, gene line r2148): 5.334
